Reference: publication PMC12948427 (The Journal of Clinical Investigation, 2025)
“And” between values parts separate entries of the source, which are not always exact repeats. Equal values may be shown once. Read-outs that look alike come from different tables or passages of the source.

Legend:
[1] = test system: WIV1; test: microbe, parasite or virus in culture; format: cell-based, bat coronavirus WIV1; conditions: Bat coronavirus, 48 h, read-out: EC50 (IFA)
[2] = test system: SARS-CoV-2 Omicron BA.5; test: microbe, parasite or virus in culture; format: cell-based; conditions: Severe acute respiratory syndrome coronavirus 2, 24 h, read-out: EC50 (IFA)
[3] = test system: MHV; test: microbe, parasite or virus in culture; conditions: Murine coronavirus, 24 h, read-out: EC50, rescue of coronavirus-induced cytopathic effects
[4] = test system: HCoV-229E; test: In vitro antiviral activity assay (IFA), HCoV-229E; format: cell-based; conditions: for Inhibition rate (IFA): Fig 5F, MOI 0.1, 48 h
[5] = test system: WIV1; format: cell-based, bat coronavirus WIV1
[6] = test system: MHV
[7] = test system: MHV; format: cell-based, mouse hepatitis virus (MHV)
[8] = test system: HCoV-OC43; test: In vitro antiviral activity assay (IFA), HCoV-OC43; format: cell-based; conditions: for Inhibition rate (IFA): Fig 5E, MOI 0.1, 48 h
[9] = test system: 17Cl-1 cells
[10] = test system: HCoV-NL63; test: In vitro antiviral activity assay (IFA), HCoV-NL63; format: cell-based; conditions: for Inhibition rate (IFA): Fig 5C, MOI 0.1, 48 h
[11] = test system: SARS-CoV-2 wild-type; test: microbe, parasite or virus in culture; format: cell-based
[12] = format: cell-based
[13] = test system: MHV; test: microbe, parasite or virus in culture; format: cell-based, mouse hepatitis virus (MHV); conditions: Murine coronavirus, 24 h, read-out: EC50 (IFA)
[14] = target: M146 (SARS-CoV-2 M 135-146 peptide fused with HIV-TAT) (HIV | SARS-CoV-2) (UniProt P0DTC5); test: SPR
[15] = target: M161 (SARS-CoV-2 M 135-161 peptide fused with HIV-TAT) (HIV | SARS-CoV-2) (UniProt P0DTC5); test: SPR
Chain of M161 (SARS-CoV-2 M 135-161 peptide fused with HIV-TAT) (HIV | SARS-CoV-2) (P0DTC5 135-161 limits assumed): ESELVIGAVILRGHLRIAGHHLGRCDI

[16] = target: M146 (SARS-CoV-2 M 135-146 peptide fused with HIV-TAT) (HIV | SARS-CoV-2) (UniProt P0DTC5); test: SPR; remark: listed apart in the source
[17] = target: M161 (SARS-CoV-2 M 135-161 peptide fused with HIV-TAT) (HIV | SARS-CoV-2) (UniProt P0DTC5); test: SPR; remark: listed apart in the source

Chain of hHGS 1-390-6 × HIS protein (O14964 1-390): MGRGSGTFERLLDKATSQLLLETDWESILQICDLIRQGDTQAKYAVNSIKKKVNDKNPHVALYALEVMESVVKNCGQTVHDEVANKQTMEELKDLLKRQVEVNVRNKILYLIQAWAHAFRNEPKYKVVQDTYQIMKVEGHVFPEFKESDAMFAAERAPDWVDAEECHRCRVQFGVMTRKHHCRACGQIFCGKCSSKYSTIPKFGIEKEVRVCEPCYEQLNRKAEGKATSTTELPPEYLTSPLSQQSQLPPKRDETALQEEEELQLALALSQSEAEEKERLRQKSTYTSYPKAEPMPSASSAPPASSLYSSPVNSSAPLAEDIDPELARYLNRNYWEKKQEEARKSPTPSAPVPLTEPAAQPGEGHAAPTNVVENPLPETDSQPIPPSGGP

## CCC(CC)COC(=O)[C@H](C)N[P@](=O)(OC[C@H]1O[C@@](C#N)(c2ccc3c(N)ncnn23)[C@H](O)[C@@H]1O)Oc1ccccc1 [RDV, remdesivir]
[1]
  EC50: 2420 nM
[2]
  EC50: 1730 nM
[3]
  EC50: 690 nM
[4]; conc 30 (unit not given)
  Inhibition rate (IFA): -0.99% and -1.45% and 0.82%
[4]; conc 100 (unit not given)
  Inhibition rate (IFA): -0.44% and -1.37% and -2.88%
[4]; conc 300 (unit not given)
  Inhibition rate (IFA): 11.16% and 13% and 6.71%
[4]; conc 1000 (unit not given)
  Inhibition rate (IFA): 47.55% and 40.71% and 45.97%
[4]; conc 3000 (unit not given)
  Inhibition rate (IFA): 81.01% and 82.05% and 81.07%
[4]; conc 10000 (unit not given)
  Inhibition rate (IFA): 97.22% and 97.53% and 97.6%
[4]; conc 25000 (unit not given)
  Inhibition rate (IFA): 98.73% and 98.28%
[4]; Human coronavirus 229E, 48 h, read-out: EC50 (IFA)
  EC50: 1010 nM
[5]
  extracellular viral gRNA levels (RT-qPCR): 1.00 and 2.00
[6]; concentration 10
  viability of infected cells (rescue of cytopathic effect), Figures S9G-L: 46.7323 and 45.5347 and 44.3372
[6]; concentration 30
  viability of infected cells (rescue of cytopathic effect), Figures S9G-L: 45.5347 and 43.8916 and 43.4181
[6]; concentration 100
  viability of infected cells (rescue of cytopathic effect), Figures S9G-L: 50.492 and 47.7906 and 49.378
[6]; concentration 300
  viability of infected cells (rescue of cytopathic effect), Figures S9G-L: 59.7939 and 57.0925 and 55.143
[6]; concentration 1000
  viability of infected cells (rescue of cytopathic effect), Figures S9G-L: 78.2027 and 84.5804 and 83.9955
[6]; concentration 3000
  viability of infected cells (rescue of cytopathic effect), Figures S9G-L: 102.237 and 100.176 and 102.46
[6]; concentration 10000
  viability of infected cells (rescue of cytopathic effect), Figures S9G-L: 103.491 and 100.789 and 102.906
[6]; concentration 25000
  viability of infected cells (rescue of cytopathic effect), Figures S9G-L: 101.903 and 103.017 and 102.042
[7]; Ctr 17Cl-1 cells, 24 hpi
  Extracellular MHV gRNA (Figure S11A): 1.417 and 1.434 and 1.4484
[7]; Ctr 17Cl-1 cells, 48 hpi
  Extracellular MHV gRNA (Figure S11A): 2.342 and 2.426 and 2.427
[7]; Ctr 17Cl-1 cells, 72 hpi
  Extracellular MHV gRNA (Figure S11A): 2.913 and 2.938 and 2.965
[7]; Hgs-KO1 17Cl-1 cells, 24 hpi
  Extracellular MHV gRNA (Figure S11A): 0.1732 and 0.2504 and 0.2945
[7]; Hgs-KO1 17Cl-1 cells, 48 hpi
  Extracellular MHV gRNA (Figure S11A): 0.5159 and 0.4955 and 0.5011
[7]; Hgs-KO1 17Cl-1 cells, 72 hpi
  Extracellular MHV gRNA (Figure S11A): 0.5763 and 0.5575 and 0.5302
[7]; Hgs-KO2 17Cl-1 cells, 48 hpi
  Extracellular MHV gRNA (Figure S11A): 0.243 and 0.2742 and 0.2718
[7]; Hgs-KO2 17Cl-1 cells, 72 hpi
  Extracellular MHV gRNA (Figure S11A): 0.4771 and 0.48 and 0.4728
[7]; MHV, Hgs-KO 17Cl-1, RTB 25 μM or RDV 5 μM, compared with DMSO-treated Hgs-KO cells
  antiviral activity in Hgs-KO cells: maintained potent antiviral activity
[8]; Betacoronavirus 1, OC43, 48 h, read-out: EC50 (IFA)
  EC50: 410 nM
[8]; conc 10 (unit not given)
  Inhibition rate (IFA): 50.23% and 41.56% and 35.15%
[8]; conc 30 (unit not given)
  Inhibition rate (IFA): 35.85% and 33.9% and 36.83%
[8]; conc 100 (unit not given)
  Inhibition rate (IFA): 54.42% and 40.68% and 45.58%
[8]; conc 300 (unit not given)
  Inhibition rate (IFA): 65.9% and 68.1% and 71.65%
[8]; conc 1000 (unit not given)
  Inhibition rate (IFA): 93.48% and 93.42% and 95.53%
[8]; conc 3000 (unit not given)
  Inhibition rate (IFA): 103.3% and 99.46% and 99.73%
[8]; conc 10000 (unit not given)
  Inhibition rate (IFA): 112.73% and 104.65% and 109.25%
[8]; conc 25000 (unit not given)
  Inhibition rate (IFA): 117.32% and 112.33% and 115.73%
[9]; concentration 0.01
  cell viability, Figures S9A, B, D-F: 103.896 and 102.857
[9]; concentration 0.03
  cell viability, Figures S9A, B, D-F: 100
[9]; concentration 0.1
  cell viability, Figures S9A, B, D-F: 100
[9]; concentration 0.3
  cell viability, Figures S9A, B, D-F: 100
[9]; concentration 1
  cell viability, Figures S9A, B, D-F: 100
[9]; concentration 3
  cell viability, Figures S9A, B, D-F: 100
[9]; concentration 10
  cell viability, Figures S9A, B, D-F: 100
[9]; concentration 25
  cell viability, Figures S9A, B, D-F: 100
[10]; conc 10 (unit not given)
  Inhibition rate (IFA): -13.7402% and -16.2366% and -15.0261%
[10]; conc 300 (unit not given)
  Inhibition rate (IFA): 80.1311% and 63.4462% and 86.5422%
[10]; conc 1000 (unit not given)
  Inhibition rate (IFA): 98.8533% and 99.4472% and 99.9344%
[10]; conc 3000 (unit not given)
  Inhibition rate (IFA): 99.4236% and 99.6729% and 98.5431%
[10]; conc 10000 (unit not given)
  Inhibition rate (IFA): 99.8898% and 100.315% and 100.324%
[10]; conc 25000 (unit not given)
  Inhibition rate (IFA): 100.095% and 100.184% and 100.326%
[10]; Human coronavirus NL63, 48 h, read-out: EC50 (IFA)
  EC50: 200 nM
[11]
  Inhibition rate (IFA): -18.2121%
[11]; Severe acute respiratory syndrome coronavirus 2, 24 h, read-out: EC50 (IFA)
  EC50: 3510 nM
[12]; 1h, concentration 30 (unit not given)
  Inhibition, time-of-drug-addition (Figures S12A, S12B): 5.191 and 6.604 and 3.913
[12]; 1h, concentration 300 (unit not given)
  Inhibition, time-of-drug-addition (Figures S12A, S12B): 29.4212 and 36.852 and 30.2123
[12]; 1h, concentration 1000 (unit not given)
  Inhibition, time-of-drug-addition (Figures S12A, S12B): 94.0553 and 94.9808 and 93.9778
[12]; 1h, concentration 3000 (unit not given)
  Inhibition, time-of-drug-addition (Figures S12A, S12B): 100.171 and 99.7032 and 100.277
[12]; 1h, concentration 10000 (unit not given)
  Inhibition, time-of-drug-addition (Figures S12A, S12B): 100.334 and 99.9318 and 99.6732
[12]; 1h, concentration 25000 (unit not given)
  Inhibition, time-of-drug-addition (Figures S12A, S12B): 99.7405 and 99.6154 and 100.895
[12]; 3h, concentration 300 (unit not given)
  Inhibition, time-of-drug-addition (Figures S12A, S12B): 9.79 and 17.6203 and 16.0643
[12]; 3h, concentration 1000 (unit not given)
  Inhibition, time-of-drug-addition (Figures S12A, S12B): 55.9963 and 60.6001 and 59.2495
[12]; 3h, concentration 3000 (unit not given)
  Inhibition, time-of-drug-addition (Figures S12A, S12B): 88.3762 and 86.7679 and 87.568
[12]; 3h, concentration 10000 (unit not given)
  Inhibition, time-of-drug-addition (Figures S12A, S12B): 90.2121 and 88.9101 and 87.2358
[12]; 3h, concentration 25000 (unit not given)
  Inhibition, time-of-drug-addition (Figures S12A, S12B): 90.2507 and 90.1885 and 92.1218
[12]; 5h, concentration 1000 (unit not given)
  Inhibition, time-of-drug-addition (Figures S12A, S12B): 25.3228 and 41.8171 and 37.9682
[12]; 5h, concentration 3000 (unit not given)
  Inhibition, time-of-drug-addition (Figures S12A, S12B): 84.9456 and 81.9798 and 79.5741
[12]; 5h, concentration 10000 (unit not given)
  Inhibition, time-of-drug-addition (Figures S12A, S12B): 96.9121 and 98.7645 and 101.081
[12]; 5h, concentration 25000 (unit not given)
  Inhibition, time-of-drug-addition (Figures S12A, S12B): 101.735 and 102.093 and 102.226
[12]; 7h, concentration 3000 (unit not given)
  Inhibition, time-of-drug-addition (Figures S12A, S12B): 42.654 and 32.1868 and 38.6066
[12]; 7h, concentration 10000 (unit not given)
  Inhibition, time-of-drug-addition (Figures S12A, S12B): 72.2116 and 77.3057 and 82.6181
[12]; 7h, concentration 25000 (unit not given)
  Inhibition, time-of-drug-addition (Figures S12A, S12B): 95.7566 and 91.5378 and 92.3496
[12]; RTB 25 μM or RDV 5 μM added at 0, 2, 4 or 6 hpi
  antiviral activity versus time of treatment start: decreased in a time-dependent manner
[13]
  EC50: 1290 nM

## hHGS 1-390-6 × HIS protein (from UniProt O14964 1-390) (domain or fragment)
[14]
  Kd: 5.73 nM
[15]
  Kd: 3.84 nM
[16]
  Kd: 210 nM
[17]
  Kd: 830 nM
